We go through seven compounds from paper PMC10161260 (The Journal of antimicrobial chemotherapy, 2023).

The term Cmax denotes the maximum level reached in the sampled fluid or tissue. What is called Tmax is the time at which the peak concentration occurs.

Read-outs that look alike come from different tables or passages of the source.

The format of series [1] is in vivo, human. The following applies: for Cmax in PBMCs: all participants, geometric mean (95% CI).
Series [2] is classed as in vivo, human. The following applies: for Mean peak concentration in rectal tissue: 48 h after the first dose; for Time of peak mean concentration in rectal tissue: after the first dose; for Time rectal tissue concentrations remained measurable after the second dose: in vivo.
The nature of series [3]: clinical. The following applies: in vivo; for AUC0–120h in plasma / Cmax / Tmax / Mean plasma concentration by 72 h (48 h after the second dose): po. Details: species or system human.
The nature of series [4]: clinical. Details: species or system human. The following applies: in vivo; for Cmax: po.
Series [5] can be described thus: Rectal swab / rectal secretion drug concentrations after two oral doses in MSM. In kind it is in vivo, human. The following applies: for Mean concentration on rectal swabs at 48 h: 48 h after first dose (elvitegravir peak), geometric mean; for Concentration on rectal swabs by 120 h: LLOQ 1 ng/swab; for Time of peak mean concentration on rectal swabs: hours after first dose.

On the set-up of series [6]: species or system human. The following applies: in vivo; for Antiretroviral drug detection, glans swab / Antiretroviral drug detection, urethral swab: male, human.
On the set-up of series [7]: species or system human. The following applies: in vivo.
For series [8], the system named is HIV. The following applies: cited from earlier work.
For series [9] the following is noted: stated as known, no reference given; cited from earlier work.
The conditions of series [10]: cited from earlier work.

Regarding `CC(Cn1cnc2c(N)ncnc21)OCP(=O)(O)OP(=O)(O)OP(=O)(O)O` (stereo in doubt) [tenofovir diphosphate], in series [1], the “Cmax in PBMCs” value was 552 (297–1026) fmol/10^6 PBMC. In series [1] (hours after first dose), the “Tmax in PBMCs” value stood at 28 h. In addition, in series [2], the “Mean peak concentration in rectal tissue” value was 15.3 fmol/mg, the “Time of peak mean concentration in rectal tissue” value was found to be 48 h and the “Time rectal tissue concentrations remained measurable after the second dose” value was “at least 96 h”.

On to `O=C(NCc1c(F)cc(F)cc1F)c1cn2c(c(O)c1=O)C(=O)N1[C@H]3CC[C@H](C3)O[C@@H]1C2` [bictegravir], for which the “Plasma AUC0–120h of bictegravir relative to elvitegravir” value in series [3] (human) was “more than twice”. The “AUC0–120h in plasma” value in [3] is recorded as 94 437 (8748) ng × h/mL. Besides, the “Mean plasma concentration 96 h after dosing” value in [3] (male, human, 96 h) was 273 (95% CI: 164–456) ng/mL. Further, in series [3] (male, human), the highest concentration (Cmax) turned out to be 1770 ng/mL and the Tmax was determined as 2 h. The “AUC0–120h in rectal tissue” value in series [4] is 20.53 (5.14) ng × h/mg. For the same compound, in series [4] (male, human), the “Mean rectal tissue concentration relative to PAEC95” value is listed as “did not reach more than twice the PAEC95”, the concentration at 2 h is 270 ng/g and the highest level (Cmax) was 290 ng/g. In [5], the “Mean concentration on rectal swabs at 48 h” value is 2.1 ng/swab and the “Concentration on rectal swabs by 120 h” value is given as “undetectable in most rectal swabs”. For the same compound, in [6], the “Detection in penile secretions” value is “not consistently detected”; the “Antiretroviral drug detection, glans swab” value is 2/71 (3%); the “Antiretroviral drug detection, urethral swab” value was 3/71 (4%). Moreover, the “Urine concentration within 48 h after the second dose” value in series [7] is on record as “undetectable”. In series [7] (male, human), the “Antiretroviral drug detection, urine” value is given as 32/70 (46%); the “Detected in urine specimens” value is recorded as 46%; the Mean urine concentration entry was “less than 1 μg/mL”. In addition, the “95% protein-adjusted effective concentration (PAEC95)” value in [8] was 162 ng/mL. Moreover, the “Protein binding in plasma” value in [9] is given as “highly protein bound”.

For the compound `C[C@H]1CO[C@@H]2Cn3cc(C(=O)NCc4ccc(F)cc4F)c(=O)c(O)c3C(=O)N12` [cabotegravir], in [10], the Tissue-to-plasma ratio result is “low tissue-to-plasma ratio”.

With `COc1cc2c(cc1Cc1cccc(Cl)c1F)c(=O)c(C(=O)O)cn2[C@H](CO)C(C)C` [elvitegravir], in [3], the “AUC0–120h in plasma” value was 44 472 (4341) ng × h/mL and the “Mean plasma concentration by 72 h (48 h after the second dose)” value is “undetectable”. In addition, in series [3] (male, human), the Cmax is 2010 ng/mL and the Tmax came out at 28 h. In addition, the “AUC0–120h in rectal tissue” value in series [4] is reported as 469.78 (321.92) ng × h/mg. For the same compound, in [4] (male, human), the Tmax came to 4 h, the concentration at 2 h is 1070 ng/g and the Cmax amounted to 3310 ng/g. For the same compound, in series [5], the “Mean concentration on rectal swabs at 48 h” value was found to be 1085 ng/swab, the “Concentration on rectal swabs by 120 h” value is reported as “undetectable in most rectal swabs” and the “Time of peak mean concentration on rectal swabs” value (“Time … on rectal swabs” below) came out at 48 h. The “Elvitegravir rectal swab concentration at 48 h relative to bictegravir” value in series [5] (P = 0.029) is “over 500 times”. Also, in series [6], the “Detection in penile secretions” value is recorded as “not consistently detected”; the “Antiretroviral drug detection, glans swab” value is on record as 9/80 (11%); the “Antiretroviral drug detection, urethral swab” value is 14/68 (21%). Further, in series [7] (male, human), the “Antiretroviral drug detection, urine” value is on record as 4/73 (5%) and the “Detected in urine specimens” value worked out at 5%. The “95% protein-adjusted inhibitory concentration (PAIC95)” value in series [8] is recorded as 45 ng/mL. Moreover, in series [9], the “Protein binding in plasma” value is “highly protein bound”.

Take `Nc1nc(=O)n([C@@H]2CS[C@H](COP(=O)(O)OP(=O)(O)OP(=O)(O)O)O2)cc1F` [emtricitabine triphosphate]: the “Cmax in PBMCs” value in series [1] is recorded as 7549 (6528–8729) fmol/10^6 PBMC. For the same compound, in [1] (male, human, PBMCs, oral, 200 mg), the Tmax turned out to be 26 h. Moreover, in series [2], the “Mean peak concentration in rectal tissue” value turned out to be 64.1 fmol/mg, the “Time of peak mean concentration in rectal tissue” value was determined as 48 h and the “Time rectal tissue concentrations remained measurable after the second dose” value is “at least 96 h”.

For `Nc1nc(=O)n([C@@H]2CS[C@H](CO)O2)cc1F` [emtricitabine], in series [3], the “Mean plasma concentration by 72 h (48 h after the second dose)” value is recorded as “undetectable”. Moreover, the “Time of peak mean rectal tissue emtricitabine concentration” value in series [4] (male, human) came out at 4 h. For the same compound, the “Time … on rectal swabs” value in series [5] turned out to be 48 h. Besides, the “Mean emtricitabine concentration on rectal swabs at 48 h (peak)” value stood at 57 ng/swab in [5] (participants also receiving bictegravir) and 241 ng/swab in series [5] (participants also receiving boosted elvitegravir). In addition, the “Detected in urine specimens (tenofovir and emtricitabine together)” value in series [7] (male, human) is reported as 273/276.

For the compound `C[C@H](Cn1cnc2c(N)ncnc21)OCP(=O)(O)O` [tenofovir], the “Tenofovir concentration in rectal tissue” value in series [4] (male, human) is “less than 1 ng/mg”. Further, the “Time … on rectal swabs” value in series [5] came out at 48 h. For the same compound, in series [5] (not different between regimens), the “Mean tenofovir concentration on rectal swabs at 48 h (peak)” value was determined as 16 ng/swab. Besides, the “Detected in urine specimens (tenofovir and emtricitabine together)” value in [7] (male, human) is 273/276.
